In patent US20130224115A1, “NON-RADIOACTIVE AGENTS FOR NEUROBLASTOMA IMAGING” (Baylor College of Medicine, priority 2010, published 2013):
Values joined by “and” are separate entries in the source; they are usually repeats but may differ in a detail not shown here. Equal entries are not always repeated. “Also recorded” adds a separate entry of the source.

Legend:
[1] = system: human neuroblastoma cells (NPG.Luc cells); experiment: NIR confocal microscopy of imaging agent uptake by neuroblastoma cells; type: cell-based; conditions: 50 μmolar, incubated overnight at 37° C., ex/em 765/810 nm
Description: Cell lines. Human neuroblastoma cancer cell lines NB1691.1uc and SYFY.luc were cultured in Dulbecco's Modified Eagle's Medium supplemented with high glucose and F12 nutrient (DMEM/F12, Invitrogen, Carlsbad, Calif.) with 10% fetal bovine serum (Hyclone, Logan, Utah) in a humidified incubator maintained at 37° C. with 5% CO2.
Confocal microscope imaging. Cells were harvested from culture and incubated overnight at 37° C. with W765-BG imaging agent or NIR dye at final concentrations of 50 μmolar. Cells were washed in PBS, then incubated for 15 min at 4° C. with Sytox green (Molecular Probes) in 95% ethanol to fix the cells and stain cell nuclei. Stained cells were then transferred to a slide and mounted for microscopic examination. Images were recorded using an Olympus confocal microscope (Model: Fluorview 1000, Olympus America, Center Valley, Pa., USA). The microscope was equipped with excitation (Ex) light source and emission (Em) filters to detect and separate W765-BG or NIR dye (ex/em 765/810 nm) and cell nuclei (ex/em 488/510 nm) signals. In the microscopic images, signal intensities were recorded from one slice of 23 cell z-stacks with 0.5 micrometers gaps. Sytox green and W765-BG or NIR dye signals were pseudo colored into green (emission at 510 nm) and red (emission at 810 nm), respectively.
Imaging of W765-BG in neuroblastoma cells. To evaluate W765-BG as a potential specific molecule, its ability to uptakes by neuroblastoma cells was examined in vitro by NIR confocal microscopy. NPG.Luc cells were treated with W765-BG or free dye overnight at 37° C., after which they were washed, fixed, and visualized by confocal microscopy.
In vitro cell uptake imaging agent. Imaging agent uptake by the cells was recorded by confocal microscopy. The images show cell morphology (FIG. 3A), cell nuclei (FIG. 3B), and W765-BG uptakes by cells (FIG. 3C). […] Those results were validated by non-overlaid NIR images (FIG. 3G and FIG. 3H).

NGP.Luc xenograft = experiment: In vivo NIR optical imaging of NGP.Luc tumor xenografts in mice
Description: (§1) Tumor xenografts: Four- to six-week-old female nude mice (18-22 g) (Taconic, Hudson, N.Y.) were housed and fed with sterilized pellet chow and sterilized water. Animals were maintained in a pathogen-free mouse colony. Tumor cells near confluence were harvested by incubation with 0.05% trypsin-EDTA. Cells were pelleted by centrifugation at 130×g for 5 min and resuspended in sterile phosphate-buffered saline (PBS). Approximately 1 million cells were implanted subcutaneously into the hind leg region of the mice. A total of 15 mice was used in this study.
(§2) Animal imaging. Tumors were visualized by intraperitoneal injection of 3 mg of VivoGlo Luciferin (Promega, Madison Wis.) before the imaging session, and pseudo into cyan. Ten nanomoles of W765-BG and 3 nanomoles of the vascular agent RGD-Cy5.5 were injected i.v. into the tumor-bearing mice prior to the imaging study. The animals were imaged 1 to 9 days after the injection using the Kodak In-Vivo Multispectral System FX (Carestream Health Molecular Imaging, New Haven, Conn.). Vasculature images were recorded at wavelengths of ex/em 650/700 nm for RDG-Cy5.5 and pseudo colored into red. The W765-BG signal was recorded at wavelengths of ex/em 770/830 nm and pseudo colored into green. Tumor cells, vasculature, and W765-BG signals were precisely overlaid with anatomical X-ray images.
Imaging of W765-BG in human tumor xenografts in mice. […] Tumor-bearing mice received an intraperitoneal injection of Luciferin to visualize the tumor cells, followed by an intravenous injection of W765-BG from the tail vein. Whole body images were collected at 24 h intervals over the course of eight days. Tumors were visualized by white light, X-ray and luciferase imaging (FIG. 2). […] When merging the optical signal of W765-BG with luciferase and anatomic X-ray images (FIG. 2E-2F), their precise overlay confirms the specificity of W765-BG.
In contrast, the NGP.Luc tumor was rather diffuse without a clear margin in the early tumor growth phase (FIG. 4G). The tumor vasculature developed better than in the NB1691.Luc tumor. […] The diffused tumor growth pattern also limited the W765-BG imaging findings in this stage (FIG. 4I). Once again, the merged images show the location of the tumor cells and the vasculature status (FIG. 4J to FIG. 4L). One week later, the tumor cells became more concentrated in one location (FIG. 4M). The vasculature surrounding the tumor node was well formed (FIG. 4N) and the TBR of the vasculature agent increased to 1.90. […] The two imaging agents were distributed differently in the body (FIG. 4P). […] Merged X-ray and W765-BG images confirmed the tumor size, location and W765-BG signal intensity (FIG. 4Q).

NB1691.Luc xenograft = experiment: In vivo NIR optical imaging of NB1691.Luc tumor xenografts in mice; conditions: 7 days post inoculation, 10 nmol W765-BG, 3 nmol RGD-Cy5.5 i.v.
Description: as §1
as §2, with “The animals were imaged 1 to 9 days after the injection using the Kodak In-Vivo Multispectral System FX (Carestream Health Molecular Imaging, New Haven, Conn.).” left out, “Tumor cells, vasculature, and W765-BG signals were precisely overlaid with anatomical X-ray images.” left out
In vivo imaging. Luciferase positive tumor cell could be detected as early as 4 days after inoculation (data not show). Different tumor growth patterns were detected at 7 days post inoculation. […]

[2] = system: human neuroblastoma xenograft; experiment: Whole body and dissected organ imaging in the neuroblastoma xenograft mouse model (late stage tumor, imaging window); type: in vivo, mice
Description: as §1, §2
Late stage tumor, organ image and pathological analysis. Late stage tumor mass and organ imaging were performed after the injection of additional imaging agent (FIG. 5A-H). […] Gross necropsy confirmed the necrosis in the center of this tumor. H&E stain confirmed the identification of tumor (FIG. 5I), muscle (FIG. 5J), liver (FIG. 5K), kidney (FIG. 5L), and spleen (FIG. 5M) at pathological levels.

neuroblastomas = conditions: Maris et al., 2007; cited from earlier work

Structure (SMILES) | uptake of agent by neuroblastoma cells (NIR signal in cells, confocal microscopy) [1] | tumor to background ratio (NGP.Luc xenograft; 24 hours after injection) | whole body location of NIR signal (NGP.Luc xenograft; 48 hours after administration (FIG. 2)) | tumor to background ratio (NGP.Luc xenograft; 48 hours after injection) | tumor to background ratio (NGP.Luc xenograft; 192 hours after injection) | tumor-to-background ratio (TBR) (NGP.Luc xenograft; NGP.Luc, early tumor growth phase (7 days post inoculation), 10 nmol W765-BG, 3 nmol RGD-Cy5.5 i.v.) | tumor-to-background ratio (TBR) (NGP.Luc xenograft; NGP.Luc, one week later than the early stage images) | whole body distribution of agent signal (NGP.Luc xenograft; NGP.Luc, one week later than the early stage images (FIG. 4P)) | time optical signals were retained in the tumor after injection (NGP.Luc xenograft; after which signal strength gradually diminished) | tumor-to-background ratio (TBR) (NB1691.Luc xenograft) | whole body distribution of agent signal, late stage tumor ([2]; late stage tumor, after injection of additional imaging agent (FIG. 5B, 5C)) | distribution of agent in dissected organs ([2]; late stage tumor, dissected organ images (FIG. 5F, 5G)) | imaging window post injection ([2]; post injection) [days] | uptake by normal renal structures ([2]; retroperitoneal area, whole body images) | persistence of tumor specific optical signals once absorbed ([2]; xenograft mouse model) | proportion of neuroblastomas in which the agent can be selectively concentrated (neuroblastomas) | uptake of agent by neuroblastoma cells (NIR signal in cells, confocal microscopy) ([1]; listed as NIR dye)
CC1(C)C(/C=C/C2=C(Oc3ccc(S(=O)(=O)O)cc3)C(=C/C=C3/N(CCCCCC(=O)NCC(=O)Nc4cccc(CNC(=N)N)c4)c4ccc(S(=O)(=O)O)cc4C3(C)C)/CCC2)=[N+](CCCCS(=O)(=O)O)c2ccc(S(=O)(=O)O)cc21 [Compound W765-BG, 2-(3-(IRdye800-Gly-amino)-benzyl)guanidine] | detected inside the cells; also recorded: internalized into cells; also recorded: take up the W765-BG agent; also recorded: high uptake | 1.95 | detected in tumor region only | 1.98 | 1.52 | 1.08 | 2.90 and 2.8 | mainly in the tumor region | about 48 hours | 0.95 | non-uniformly distributed in the tumor; also recorded: located only in the tumor region | in the tumor, liver and spleen | 8 to 9 | did not take up | longer than one week |  | 
N=C(N)NCc1cccc([131I])c1 [MIBG, meta-iodobenzylguanidine] |  |  |  |  |  |  |  |  |  |  |  |  |  |  |  | more than 90% | 
CC1(C)C(/C=C/C2=C(Oc3ccc(S(=O)(=O)O)cc3)C(=C/C=C3/N(CCCCS(=O)(=O)O)c4ccc(S(=O)(=O)[O-])cc4C3(C)C)/CCC2)=[N+](CCCCCC(=O)O)c2ccc(S(=O)(=O)O)cc21 [free dye, IRDye800CW carboxylate, reference compound] | almost no detectable signal |  |  |  |  |  |  |  |  |  |  |  |  |  |  |  | almost no detectable signal
